Reference: patent US20230085307A1, “PYRIDAZINONE COMPOUND AND HERBICIDE” (NISSAN CHEMICAL CORPORATION, priority 2019, published 2023)

Tests used:
late watergrass = test: Test Example 1: herbicidal activity, application before weed generation under submerged conditions (Table 16, symbol A); assay type: in vivo, late watergrass (Echinochloa oryzicola)
How it was run: (§1)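 Alluvial soil was flooded to 4 cm depth, weed seeds were sown mixed and 2.5-leaf rice seedlings were transplanted. On sowing day, the compound's emulsion, diluted in water to a set dose, was applied to the water surface. Plants grew at 25–30 °C and were scored 0–5 after three weeks.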

Japanese bulrush = test: Test Example 1: herbicidal activity, application before weed generation under submerged conditions (Table 16, symbol B); assay type: in vivo, Japanese bulrush (Schoenoplectus juncoides)
How it was run: as §1

oval-leafed pondweed = test: Test Example 1: herbicidal activity, application before weed generation under submerged conditions (Table 16, symbol C); assay type: in vivo, oval-leafed pondweed (Monochoria vaginalis)
How it was run: as §1

barnyard grass [1] = test: Test Example 3: herbicidal effect by foliage application, Wagner pot (Table 18, symbol H); assay type: in vivo, barnyard grass (Echinochloa crus-galli)
How it was run: (§2)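 Plants were sown in alluvial soil held under 0.1–0.5 cm standing water and grown 14 days in a greenhouse at 25–30 °C. An emulsifiable formulation, water-diluted to the set dose, was then sprayed onto the foliage, and effects were scored three weeks later using previously defined criteria.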

Chinese sprangletop = test: Test Example 3: herbicidal effect by foliage application, Wagner pot (Table 18, symbol D); assay type: in vivo, chinese sprangletop (Leptochloa chinensis)
How it was run: as §2

rice flat sedge = test: Test Example 3: herbicidal effect by foliage application, Wagner pot (Table 18, symbol E); assay type: in vivo, rice flat sedge (Cyperus iria)
How it was run: as §2

southern crabgrass [2] = test: Test Example 4: herbicidal effect by soil treatment (Table 19, symbol F); assay type: in vivo, southern crabgrass (Digitaria ciliaris); settings: amount of applied herbicide 320 g/ha
How it was run: (§3)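 In this soil treatment, the formulated compound reached the seeds only through the soil: seeds were buried about 1.5 cm deep in sterilized diluvial soil, then the diluted emulsion was sprayed over the surface. After three weeks at 25° C. to 30° C. in a greenhouse, effects were graded on criteria from an earlier test.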

green foxtail [3] = test: Test Example 4: herbicidal effect by soil treatment (Table 19, symbol G); assay type: in vivo, green foxtail (Setaria viridis); settings: amount of applied herbicide 320 g/ha
How it was run: as §3

barnyard grass [4] = test: Test Example 4: herbicidal effect by soil treatment (Table 19, symbol H); assay type: in vivo, barnyard grass (Echinochloa crus-galli); settings: amount of applied herbicide 320 g/ha
How it was run: as §3

wild oat [5] = test: Test Example 4: herbicidal effect by soil treatment (Table 19, symbol I); assay type: in vivo, wild oat (Avena fatua); settings: amount of applied herbicide 320 g/ha
How it was run: as §3

Italian ryegrass [6] = test: Test Example 4: herbicidal effect by soil treatment (Table 19, symbol K); assay type: in vivo, Italian ryegrass (Lolium multiflorum); settings: amount of applied herbicide 320 g/ha
How it was run: as §3

windgrass [7] = test: Test Example 4: herbicidal effect by soil treatment (Table 19, symbol L); assay type: in vivo, windgrass (Apera spica-venti); settings: amount of applied herbicide 320 g/ha
How it was run: as §3

velvetleaf [8] = test: Test Example 4: herbicidal effect by soil treatment (Table 19, symbol M); assay type: in vivo, velvetleaf (Abutilon theophrasti); settings: amount of applied herbicide 320 g/ha
How it was run: as §3

redroot pigweed [9] = test: Test Example 4: herbicidal effect by soil treatment (Table 19, symbol N); assay type: in vivo, redroot pigweed (Amaranthus retroflexus); settings: amount of applied herbicide 320 g/ha
How it was run: as §3

lambsquarters [10] = test: Test Example 4: herbicidal effect by soil treatment (Table 19, symbol O); assay type: in vivo, lambsquarters (Chenopodium album); settings: amount of applied herbicide 320 g/ha
How it was run: as §3

false cleavers = test: Test Example 4: herbicidal effect by soil treatment (Table 19, symbol Q); assay type: in vivo, false cleavers (Galium spurium); settings: amount of applied herbicide 320 g/ha
How it was run: as §3

persian speedwell [11] = test: Test Example 4: herbicidal effect by soil treatment (Table 19, symbol R); assay type: in vivo, Persian speedwell (Veronica persica); settings: amount of applied herbicide 320 g/ha
How it was run: as §3

southern crabgrass [12] = test: Test Example 5: herbicidal effect by foliage application, plastic box (Table 20, symbol F); assay type: in vivo, southern crabgrass (Digitaria ciliaris); settings: evaluated three weeks after application
How it was run: (§4)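 Plants were sown into sterilized diluvial soil under about 1.5 cm cover and kept in a greenhouse at 25° C. to 30° C. Fourteen days on, foliage received an even spray of the diluted emulsion. Herbicidal or crop effect was judged three weeks afterwards.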

green foxtail [13] = test: Test Example 5: herbicidal effect by foliage application, plastic box (Table 20, symbol G); assay type: in vivo, green foxtail (Setaria viridis); settings: evaluated three weeks after application
How it was run: as §4

barnyard grass [14] = test: Test Example 5: herbicidal effect by foliage application, plastic box (Table 20, symbol H); assay type: in vivo, barnyard grass (Echinochloa crus-galli); settings: evaluated three weeks after application
How it was run: as §4

wild oat [15] = test: Test Example 5: herbicidal effect by foliage application, plastic box (Table 20, symbol I); assay type: in vivo, wild oat (Avena fatua); settings: evaluated three weeks after application
How it was run: as §4

blackgrass [16] = test: Test Example 5: herbicidal effect by foliage application, plastic box (Table 20, symbol J); assay type: in vivo, blackgrass (Alopecurus myosuroides); settings: evaluated three weeks after application
How it was run: as §4

Italian ryegrass [17] = test: Test Example 5: herbicidal effect by foliage application, plastic box (Table 20, symbol K); assay type: in vivo, Italian ryegrass (Lolium multiflorum); settings: evaluated three weeks after application
How it was run: as §4

windgrass [18] = test: Test Example 5: herbicidal effect by foliage application, plastic box (Table 20, symbol L); assay type: in vivo, windgrass (Apera spica-venti); settings: evaluated three weeks after application
How it was run: as §4

velvetleaf [19] = test: Test Example 5: herbicidal effect by foliage application, plastic box (Table 20, symbol M); assay type: in vivo, velvetleaf (Abutilon theophrasti); settings: evaluated three weeks after application
How it was run: as §4

redroot pigweed [20] = test: Test Example 5: herbicidal effect by foliage application, plastic box (Table 20, symbol N); assay type: in vivo, redroot pigweed (Amaranthus retroflexus); settings: evaluated three weeks after application
How it was run: as §4

lambsquarters [21] = test: Test Example 5: herbicidal effect by foliage application, plastic box (Table 20, symbol O); assay type: in vivo, lambsquarters (Chenopodium album); settings: evaluated three weeks after application
How it was run: as §4

chickweed [22] = test: Test Example 5: herbicidal effect by foliage application, plastic box (Table 20, symbol P); assay type: in vivo, common chickweed (Stellaria media); settings: evaluated three weeks after application
How it was run: as §4

persian speedwell [23] = test: Test Example 5: herbicidal effect by foliage application, plastic box (Table 20, symbol R); assay type: in vivo, Persian speedwell (Veronica persica); settings: evaluated three weeks after application
How it was run: as §4

blackgrass [24] = test: Test Example 4: herbicidal effect by soil treatment (Table 19, symbol J); assay type: in vivo, blackgrass (Alopecurus myosuroides); settings: amount of applied herbicide 320 g/ha
How it was run: as §3

chickweed [25] = test: Test Example 4: herbicidal effect by soil treatment (Table 19, symbol P); assay type: in vivo, common chickweed (Stellaria media); settings: amount of applied herbicide 320 g/ha
How it was run: as §3

[26] = amount of applied herbicide 320 g/ha
[27] = foliage application, AAH 320 g/ha
[28] = amount of applied herbicide 320 g/ha, foliage application after 14-day growth

Cc1nn(C)c(=O)c(-c2c(-c3ccc(SCC(F)F)cc3)sc3ccc(F)cc23)c1O [2-260]
Herbicidal effect on A: late watergrass (grade 0-5) (late watergrass; 320 g/ha applied herbicide): 3 (Herbicidal rate of 40% or more and less than 70%)
Herbicidal effect on B: Japanese bulrush (grade 0-5) (Japanese bulrush; 320 g/ha applied herbicide): 0 (Herbicidal rate of 5% or less (almost no effect))
Herbicidal effect on C: oval-leafed pondweed (grade 0-5) (oval-leafed pondweed; 320 g/ha applied herbicide): 0 (Herbicidal rate of 5% or less (almost no effect))
herbicidal effect on H: barnyard grass (barnyard grass [1]; [26]): 5 (Herbicidal rate of 90% or more (almost completely withered))
herbicidal effect on D: Chinese sprangletop (Chinese sprangletop; [26]): 3 (Herbicidal rate of 40% or more and less than 70%)
herbicidal effect on E: rice flat sedge (rice flat sedge; [26]): 3 (Herbicidal rate of 40% or more and less than 70%)
herbicidal effect on F: southern crabgrass (southern crabgrass [2]): 4 (Herbicidal rate of 70% or more and less than 90%)
herbicidal effect on G: green foxtail (green foxtail [3]): 5 (Herbicidal rate of 90% or more (almost completely withered))
herbicidal effect on H: barnyard grass (barnyard grass [4]): 3 (Herbicidal rate of 40% or more and less than 70%)
herbicidal effect on I: wild oat (wild oat [5]): 0 (Herbicidal rate of 5% or less (almost no effect))
herbicidal effect on K: Italian ryegrass (Italian ryegrass [6]): 0 (Herbicidal rate of 5% or less (almost no effect))
herbicidal effect on L: windgrass (windgrass [7]): 0 (Herbicidal rate of 5% or less (almost no effect))
herbicidal effect on M: velvetleaf (velvetleaf [8]): 3 (Herbicidal rate of 40% or more and less than 70%)
herbicidal effect on N: redroot pigweed (redroot pigweed [9]): 5 (Herbicidal rate of 90% or more (almost completely withered))
herbicidal effect on O: lambsquarters (lambsquarters [10]): 5 (Herbicidal rate of 90% or more (almost completely withered))
herbicidal effect on Q: false cleavers (false cleavers): 0 (Herbicidal rate of 5% or less (almost no effect))
herbicidal effect on R: persian speedwell (persian speedwell [11]): 3 (Herbicidal rate of 40% or more and less than 70%)
F: southern crabgrass, herbicidal effect (criteria 0-5) (southern crabgrass [12]; [27]): 5 (Herbicidal rate of 90% or more (almost completely withered))
G: green foxtail, herbicidal effect (criteria 0-5) (green foxtail [13]; [27]): 5 (Herbicidal rate of 90% or more (almost completely withered))
H: barnyard grass, herbicidal effect (criteria 0-5) (barnyard grass [14]; [27]): 5 (Herbicidal rate of 90% or more (almost completely withered))
I: wild oat, herbicidal effect (criteria 0-5) (wild oat [15]; [27]): 5 (Herbicidal rate of 90% or more (almost completely withered))
J: blackgrass, herbicidal effect (criteria 0-5) (blackgrass [16]; [27]): 4 (Herbicidal rate of 70% or more and less than 90%)
K: Italian ryegrass, herbicidal effect (criteria 0-5) (Italian ryegrass [17]; [27]): 5 (Herbicidal rate of 90% or more (almost completely withered))
L: windgrass, herbicidal effect (criteria 0-5) (windgrass [18]; [27]): 5 (Herbicidal rate of 90% or more (almost completely withered))
M: velvetleaf, herbicidal effect (criteria 0-5) (velvetleaf [19]; [27]): 4 (Herbicidal rate of 70% or more and less than 90%)
N: redroot pigweed, herbicidal effect (criteria 0-5) (redroot pigweed [20]; [27]): 5 (Herbicidal rate of 90% or more (almost completely withered))
O: lambsquarters, herbicidal effect (criteria 0-5) (lambsquarters [21]; [27]): 5 (Herbicidal rate of 90% or more (almost completely withered))
P: chickweed, herbicidal effect (criteria 0-5) (chickweed [22]; [27]): 5 (Herbicidal rate of 90% or more (almost completely withered))
R: persian speedwell, herbicidal effect (criteria 0-5) (persian speedwell [23]; [27]): 5 (Herbicidal rate of 90% or more (almost completely withered))

CCCC(=O)Oc1c(C)nn(C)c(=O)c1-c1c(-c2ccc(F)cc2OCC)sc2cc(F)c(F)cc12 [5-032]
Herbicidal effect, A: late watergrass (late watergrass; [26]): 4 (Herbicidal rate of 70% or more and less than 90%)
Herbicidal effect, B: Japanese bulrush (Japanese bulrush; [26]): 1 (Herbicidal rate of 5% or more and less than 20%)
Herbicidal effect, C: oval-leafed pondweed (oval-leafed pondweed; [26]): 0 (Herbicidal rate of 5% or less (almost no effect))
herbicidal effect on barnyard grass (H) (barnyard grass [1]; 320 g/ha): 4 (Herbicidal rate of 70% or more and less than 90%)
herbicidal effect on Chinese sprangletop (D) (Chinese sprangletop; 320 g/ha): 3 (Herbicidal rate of 40% or more and less than 70%)
herbicidal effect on rice flat sedge (E) (rice flat sedge; 320 g/ha): 0 (Herbicidal rate of 5% or less (almost no effect))
F: southern crabgrass, herbicidal effect grade (southern crabgrass [2]): 0 (Herbicidal rate of 5% or less (almost no effect))
G: green foxtail, herbicidal effect grade (green foxtail [3]): 3 (Herbicidal rate of 40% or more and less than 70%)
H: barnyard grass, herbicidal effect grade (barnyard grass [4]): 0 (Herbicidal rate of 5% or less (almost no effect))
I: wild oat, herbicidal effect grade (wild oat [5]): 0 (Herbicidal rate of 5% or less (almost no effect))
J: blackgrass, herbicidal effect grade (blackgrass [24]): 3 (Herbicidal rate of 40% or more and less than 70%)
K: Italian ryegrass, herbicidal effect grade (Italian ryegrass [6]): 0 (Herbicidal rate of 5% or less (almost no effect))
L: windgrass, herbicidal effect grade (windgrass [7]): 5 (Herbicidal rate of 90% or more (almost completely withered))
M: velvetleaf, herbicidal effect grade (velvetleaf [8]): 1 (Herbicidal rate of 5% or more and less than 20%)
N: redroot pigweed, herbicidal effect grade (redroot pigweed [9]): 4 (Herbicidal rate of 70% or more and less than 90%)
O: lambsquarters, herbicidal effect grade (lambsquarters [10]): 4 (Herbicidal rate of 70% or more and less than 90%)
P: chickweed, herbicidal effect grade (chickweed [25]): 0 (Herbicidal rate of 5% or less (almost no effect))
Q: false cleavers, herbicidal effect grade (false cleavers): 0 (Herbicidal rate of 5% or less (almost no effect))
Herbicidal effect by foliage application, F: southern crabgrass (southern crabgrass [12]; [28]): 0 (Herbicidal rate of 5% or less (almost no effect))
Herbicidal effect by foliage application, G: green foxtail (green foxtail [13]; [28]): 2 (Herbicidal rate of 20% or more and less than 40%)
Herbicidal effect by foliage application, H: barnyard grass (barnyard grass [14]; [28]): 4 (Herbicidal rate of 70% or more and less than 90%)
Herbicidal effect by foliage application, I: wild oat (wild oat [15]; [28]): 0 (Herbicidal rate of 5% or less (almost no effect))
Herbicidal effect by foliage application, J: blackgrass (blackgrass [16]; [28]): 3 (Herbicidal rate of 40% or more and less than 70%)
Herbicidal effect by foliage application, K: Italian ryegrass (Italian ryegrass [17]; [28]): 0 (Herbicidal rate of 5% or less (almost no effect))
Herbicidal effect by foliage application, L: windgrass (windgrass [18]; [28]): 4 (Herbicidal rate of 70% or more and less than 90%)
Herbicidal effect by foliage application, M: velvetleaf (velvetleaf [19]; [28]): 4 (Herbicidal rate of 70% or more and less than 90%)
Herbicidal effect by foliage application, N: redroot pigweed (redroot pigweed [20]; [28]): 3 (Herbicidal rate of 40% or more and less than 70%)
Herbicidal effect by foliage application, O: lambsquarters (lambsquarters [21]; [28]): 3 (Herbicidal rate of 40% or more and less than 70%)
Herbicidal effect by foliage application, P: chickweed (chickweed [22]; [28]): 5 (Herbicidal rate of 90% or more (almost completely withered))
Herbicidal effect by foliage application, R: persian speedwell (persian speedwell [23]; [28]): 3 (Herbicidal rate of 40% or more and less than 70%)
